Assays:
Assay type in all cases: cell-based
[1] = test system: human embryonic stem cells line H1; assay: Real-time PCR of pancreatic related genes in H1 cells differentiated by the Example 1 protocol
Procedure: FIGS. 1A to 1H show real-time PCR data obtained from samples obtained from cells at stages III-IV, of the protocol outlined in Example 1, for PAX4 (FIG. 1A), NGN3 (FIG. 1B), PDX1 (FIG. 1C), NEUROD (FIG. 1D), NKX6.1 (FIG. 1E), CDX2 (FIG. 1F), and Albumin (FIG. 1G). The y-axis is fold expression over undifferentiated H1 cells.
Cells of the human embryonic stem cells line H1 (p40-p50) were cultured on MATRIGEL®-coated dishes (1:30 dilution) (BD Biosciences; Cat #356231) in MEF-CM (mouse embryonic fibroblast conditioned medium) as colonies and differentiated into pancreatic endocrine precursor cells as follows: • a. Stage I (Definitive Endoderm): Human embryonic stem cells were cultured in RPMI medium supplemented with 2% fatty acid-free BSA (Catalog#68700, Proliant, IA), and 100 ng/ml activin A (R&D Systems, MN) plus 20 ng/ml WNT-3a (Catalog#1324-WN-002, R&D Systems, MN) plus 8 ng/ml of bFGF (Catalog#100-18B, PeproTech, NJ), for one day, followed by treatment with RPMI medium supplemented with 2% BSA and 100 ng/ml activin A plus 8 ng/ml of bFGF for an additional two days, then • b. Stage II (Primitive gut tube): Cells were treated with RPMI+2% fatty acid-free BSA and 50 ng/ml FGF7, for two days, then • c. Stage III (Posterior foregut): Cells were treated with DMEM/High-Glucose supplemented with 1:200 dilution of ITS-X (Invitrogen, CA) and 0.1% BSA (Lipid Rich) (Invitrogen, Ca No. 11021-045), 50 ng/ml FGF7, 0.25 μM SANT-1, 2 μM Retinoic acid (RA) (Sigma, MO), 100 ng/ml of Noggin (R & D Systems, MN), 2.5 μM 4-[4-(4-Fluorophenyl)-1-(3-phenylpropyl)-5-pyridin-4-yl-1H-imidazol-2-yl]but-3-yn-1-ol (a P38 inhibitor disclosed in U.S. Pat. No. 6,521,655), and activin A at 20 ng/ml for five days, then • d. Stage IV (Pancreatic endocrine precursor): Cells were treated with DMEM/High-Glucose supplemented with 1:200 dilution of ITS-X (Invitrogen, CA) and 0.1% BSA (Invitrogen, Ca), 100 ng/ml Noggin, 1 μM ALK5 inhibitor (SD-208, disclosed in Molecular Pharmacology 2007 72:152-161), 500 nM TPB (α-Amyloid Precursor Protein Modulator) (Catalogue #565740, EMD, CA), and 10-100 nM of the CYP26A inhibitor N-{4-[2-Ethyl-1-(1H-1,2,4-triazol-1-yl)butyl]phenyl}-1,3-benzothiazol-2-amine, and 10-100 nM Vitamin A (Catalogue#R7632, Sigma, MO) for four days, or
In some of the cultures, the Stage IV was extended to six days. mRNA was isolated at stages III and IV for real-time PCR analysis of pancreatic related genes.

[2] = test system: human embryonic stem cells line H1; assay: NGN3 immunostaining at stage IV of the Example 1 protocol; conditions: 100 nM of the CYP26A inhibitor vs control
[3] = test system: human embryonic stem cells line H1; assay: Real-time PCR of pancreatic related genes in H1 cells differentiated by the Example 2 protocol
Procedure: FIGS. 2A to 2E show real-time PCR data obtained from samples obtained from cells at stages III-IV, of the protocol outlined in Example 2, for NGN3 (FIG. 2A), NEUROD (FIG. 2B), CDX2 (FIG. 2C), NKX6.1 (FIG. 2D) and, PDX1 (FIG. 2E). The y-axis is fold expression over undifferentiated H1 cells.
Cells of the human embryonic stem cells line H1 (p40-p52) were seeded as single cells at a density of 100000 cells/cm^2 on MATRIGEL®-coated dishes (1:30 dilution) (BD Biosciences; Cat #356231) in MEF-CM (mouse embryonic fibroblast conditioned media supplemented) with 16 ng/ml of FGF2 (Catalog#100-18B, PeproTech, NJ) and 10 μM of Y27632 (Rock inhibitor, Catalogue #Y0503, Sigma, MO). 72 hours post seeding, cultures were differentiated into definitive endoderm (DE) as follows: • a. Stage I (Definitive Endoderm): Human embryonic stem cells were treated with MCDB-131 (Catalogue#10372-019, Invitrogen, CA) medium supplemented with 2% fatty acid-free BSA (Catalog#68700, Proliant, IA), 0.0025 g/ml sodium bicarbonate (Catalogue #S3187, Sigma, MO), 1× GlutaMax™ (Catalogue #35050-079, Invitrogen, Ca) and 100 ng/ml activin A (R&D Systems, MN) plus 20 ng/ml WNT-3a (Catalog#1324-WN-002, R&D Systems, MN) for one day, followed by treatment with MCDB-131 medium supplemented with 2% BSA, sodium bicarbonate, Glutamax, and 100 ng/ml activin A for an additional three days, then • b. Stage II (Primitive gut tube): Cells were treated with MCDB-131+2% fatty acid-free BSA and 50 ng/ml FGF7 and for three days, then • c. Stage III (Posterior foregut): Cells were treated with MCDB-131/High-Glucose (25 mM glucose) supplemented with 1:200 dilution of ITS-X (Invitrogen, CA), 1× GlutaMax™ (Catalogue #35050-079, Invitrogen, Ca), 0.0025 g/ml sodium bicarbonate (Catalogue #S3187, Sigma, MO), 0.1% BSA (Lipid Rich) (Invitrogen, Ca No. 11021-045), 50 ng/ml FGF7, 0.25 μM SANT-1, 2 μM Retinoic acid (RA) (Sigma, MO), 2.5 μM 4-[4-(4-Fluorophenyl)-1-(3-phenylpropyl)-5-pyridin-4-yl-1H-imidazol-2-yl]but-3-yn-1-ol (a p38 inhibitor, disclosed in U.S. Pat. No. 6,521,655), 100 nM LDN-193189 (BMP receptor inhibitor, Catalogue #04-0019, Stemgent, CA), 500 nM of the CYP26A inhibitor N-{4-[2-Ethyl-1-(1H-1,2,4-triazol-1-yl)butyl]phenyl}-1,3-benzothiazol-2-amine, and activin A at 20 ng/ml for four days, then • d. Stage IV (Pancreatic endocrine precursor): Cells were treated MCDB-131/High-Glucose (25 mM glucose) supplemented with 1:200 dilution of ITS-X (Invitrogen, CA) and 0.1% BSA (Invitrogen, Ca), 1× GlutaMax™ (Catalogue #35050-079, Invitrogen, Ca), 0.0025 g/ml sodium bicarbonate (Catalogue #S3187, Sigma, MO), 1 μM ALK5 inhibitor (SD-208, disclosed in Molecular Pharmacology 2007 72:152-161), 500 nM PDBu (PKC activator) (Catalogue #P1269, Sigma, MO), 100 nM LDN-193189 (BMP receptor inhibitor, Catalogue #04-0019, Stemgent, CA), 0.25 μM SANT-1 (#S4572, Sigma, MO), and 500 nM of the CYP26A inhibitor N-{4-[2-Ethyl-1-(1H-1,2,4-triazol-1-yl)butyl]phenyl}-1,3-benzothiazol-2-amine for seven days, or • e. Stage IV (Pancreatic endocrine precursor): Cells were treated MCDB-131/High-Glucose (25 mM glucose) supplemented with 1:200 dilution of ITS-X (Invitrogen, CA) and 0.1% BSA (Invitrogen, Ca), 1× GlutaMax™ (Catalogue #35050-079, Invitrogen, Ca), 0.0025 g/ml sodium bicarbonate (Catalogue #S3187, Sigma, MO), 1 μM ALK5 inhibitor (SD-208, disclosed in Molecular Pharmacology 2007 72:152-161), 500 nM PDBu (PKC activator) (Catalogue #P1269, Sigma, MO), 100 nM LDN-193189 (BMP receptor inhibitor, Catalogue #04-0019, Stemgent, CA), 0.25 μM SANT-1 (#S4572, Sigma, MO) for seven days.
mRNA was isolated at stages III and IV for real-time PCR analysis of pancreatic related genes. Similar to the results observed in Example 1 above, addition of CYP26A inhibitor to stage IV enhanced expression of pancreatic endocrine precursor markers, such as NGN3 and NeuroD. (See FIG. 2A to 2E).

[4] = added at stage IV, 10-100 nM, mRNA, real-time PCR, dose dependent
[5] = added at stage IV, mRNA, real-time PCR
[6] = 500 nM added to both stages III and IV
[7] = 500 nM added to stage III in the presence of retinoic acid

Compound	expression of pancreatic endoderm or endocrine precursor markers ([1]; vitamin A 10-100 nM added along with the CYP26A inhibitor at stage IV)	expression of endocrine precursor marker NGN3 [1, 4]	expression of endocrine precursor marker NeuroD [1, 4]	expression of endocrine precursor marker Pax4 [1, 4]	expression of pancreatic endoderm marker NKX6.1 [1, 4]	expression of CDX2 (an intestinal marker) [1, 5]	expression of albumin (a liver marker) [1, 5]	expression of NGN3 by immunostaining [2]	expression of NGN3 [3, 6]	expression of NeuroD [3, 6]	expression of CDX2 [3, 7]	expression of NKX6.1 [3, 7]	expression of PDX-1 [3, 7]	expression of pancreatic endocrine precursor marker NGN3 ([3]; 500 nM added to stage IV)	expression of pancreatic endocrine precursor marker NeuroD ([3]; 500 nM added to stage IV)
Vitamin A	did not significantly modify														
CCC(CC)[C@H](c1ccc(Nc2nc3ccccc3s2)cc1)n1cncn1 (stereo in doubt) [CYP26A inhibitor, N-{4-[2-Ethyl-1-(1H-1,2,4-triazol-1-yl)butyl]phenyl}-1,3-benzothiazol-2-amine]		significantly boosted	significantly boosted	significantly boosted	significantly boosted	decreased	decreased	significant boost	further enhanced	further enhanced	enhancing	significantly down regulated	significantly down regulated	enhanced	enhanced

From patent US9458430B2, “Differentiation of pluripotent stem cells” (Janssen Biotech, Inc., priority 2010, dated 2016)
